Measurements as given in patent US10800767B2, “Thyroid hormone receptor beta agonist compounds” (Terns, Inc., priority 2018, dated 2020).

Experiments:
[1] = target: TR beta-LBD (thyroid hormone receptor beta) (Homo sapiens (Human), UniProt P10828); experiment: LanthaScreen TR-FRET Thyroid Receptor beta Coactivator Assay (agonist screening); type: biochemical; conditions: for THRβ-Selectivity: THR beta over THR alpha, derived from T3-selectivity normalized data; for EC50: TR-FRET coactivator assay, TR beta-LBD 1.0 nM, 2 hour incubation, average of duplicate runs, read-out: EC50 THRβ-FRET
Sequence of TR beta-LBD (thyroid hormone receptor beta) (P10828 217-461): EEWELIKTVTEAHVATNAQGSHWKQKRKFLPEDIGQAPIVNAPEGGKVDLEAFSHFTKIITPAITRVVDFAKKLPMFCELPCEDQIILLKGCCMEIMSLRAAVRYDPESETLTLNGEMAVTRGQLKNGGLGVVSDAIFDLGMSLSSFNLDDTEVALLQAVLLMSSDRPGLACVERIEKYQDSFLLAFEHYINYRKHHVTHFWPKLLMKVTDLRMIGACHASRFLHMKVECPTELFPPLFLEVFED
Experimental: (§1) Example B1: Time-Resolved Fluorescence Resonance Energy Transfer (TR-FRET) Assay for Thyroid Hormone Receptor Agonist Screening
(§2) LanthaScreen™ TR-FRET Thyroid Receptor alpha Coactivator Assay kit (ThermoFisher) and LanthaScreen™ TR-FRET Thyroid Receptor beta Coactivator Assay kit (ThermoFisher) were used for agonist compound screening. Compounds in DMSO were diluted using ECHO Liquid Handler (Labcyte Inc.) into 384 plates in 10-point 3-fold series in duplicate (5 micro M final top concentration). Buffer C (ThermoFisher) was added to each well before the 4× mixture of fluorescein-SCR2-2 coactivator (200 nM final concentration), Terbium-labeled anti-GST antibody (2 nM final concentration), and TR alpha-LBD (0.4 nM final concentration) or TR beta-LBD (1.0 nM final concentration) was added. After 2 hour incubation at room temperature in dark, the TR-FRET signal was measured on an EnVision plate reader (PerkinElmer) with excitation at 340 nm and dual emission readout at 495 and 520 nm with the delay time of 100 micro second and the integration time of 200 micro second. The ratio of emission signal at 520 and at 495 was used to calculate EC50 using GraphPad Prism (GraphPad Software). In every batch of compound screening, T3 (L-3,3′,5-Triiodothyronine sodium salt, >95%) (Calbiochem) was used as reference compound. The EC50 of T3 measured were within 3-fold of the reference value provided by the assay kit manufacturer (ThermoFisher Scientific). The Z′ factors measured in every batch of screening using T3 as high percent effect (HPE) control and 0.5% DMSO as zero percent effect (ZPE) control were in the range of 0.5 to 0.8. Compounds' THR-beta selectivity values are derived from T3-selectivity normalized data.

[2] = target: TR alpha-LBD (thyroid hormone receptor alpha) (Homo sapiens (Human), UniProt P10827); experiment: LanthaScreen TR-FRET Thyroid Receptor alpha Coactivator Assay (agonist screening); type: biochemical; conditions: TR alpha-LBD 0.4 nM, 2 hour incubation, average of duplicate runs, read-out: EC50 THRα-FRET
Sequence of TR alpha-LBD (thyroid hormone receptor alpha) (P10827 other isoform, or with tags, fused parts or gaps del 1-162, other chains not shown): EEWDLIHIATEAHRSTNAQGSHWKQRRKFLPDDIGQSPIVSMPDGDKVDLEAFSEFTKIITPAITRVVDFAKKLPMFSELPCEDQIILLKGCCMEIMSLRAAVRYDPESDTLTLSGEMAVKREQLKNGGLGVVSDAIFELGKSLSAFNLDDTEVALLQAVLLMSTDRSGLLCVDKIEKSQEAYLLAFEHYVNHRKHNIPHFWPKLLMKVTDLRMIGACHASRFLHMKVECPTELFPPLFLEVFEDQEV
Experimental: as §1, §2

THRβ-Selectivity [1]	EC50 [1] [nM]	EC50 [2] [nM]	Compound
1.0	277	75.9	CC(C)c1cc(Oc2c(Cl)cc(NC(C)c3noc(=O)[nH]3)cc2Cl)nn(C)c1=O (single isomer, unassigned) [Example 3-P1, 3-(1-((3,5-dichloro-4-((5-isopropyl-1-methyl-6-oxo-1,6-dihydropyridazin-3-yl)oxy)phenyl)amino)ethyl)-1,2,4-oxadiazol-5(4H)-one]
4.2	732	817	CC(C)c1cc(Oc2c(Cl)cc(NC(C)c3noc(=O)[nH]3)cc2Cl)nn(C)c1=O (single isomer, unassigned) [Example 3-P2, 3-(1-((3,5-dichloro-4-((5-isopropyl-1-methyl-6-oxo-1,6-dihydropyridazin-3-yl)oxy)phenyl)amino)ethyl)-1,2,4-oxadiazol-5(4H)-one]
17.2	7.6	49.5	CC(C)c1cc(Oc2c(Cl)cc(NCc3noc(=O)[nH]3)cc2Cl)nn(C)c1=O [Example 1, 3-(((3,5-dichloro-4-((5-isopropyl-1-methyl-6-oxo-1,6-dihydropyridazin-3-yl)oxy)phenyl)amino)methyl)-1,2,4-oxadiazol-5(4H)-one]
	> 5000	> 5000	CC(C)c1cc(Oc2c(Cl)cc(N(C)Cc3noc(=O)[nH]3)cc2Cl)nn(C)c1=O [Example 2, 3-(((3,5-dichloro-4-((5-isopropyl-1-methyl-6-oxo-1,6-dihydropyridazin-3-yl)oxy)phenyl)(methyl)amino)methyl)-1,2,4-oxadiazol-5(4H)-one]
31.7	27.1	314	CC(C)c1cc(Oc2c(Cl)cc(NC(=O)c3noc(=O)[nH]3)cc2Cl)nn(C)c1=O [Example 4, N-(3,5-dichloro-4-((5-isopropyl-1-methyl-6-oxo-1,6-dihydropyridazin-3-yl)oxy)phenyl)-5-oxo-4,5-dihydro-1,2,4-oxadiazole-3-carboxamide]
27.8	74.2	469	CC(C)c1cc(Oc2c(Cl)cc(NCc3noc(=O)[nH]3)cc2Cl)n[nH]c1=O [Example 5, 3-(((3,5-dichloro-4-((5-isopropyl-6-oxo-1,6-dihydropyridazin-3-yl)oxy)phenyl)amino)methyl)-1,2,4-oxadiazol-5(4H)-one]
3.6	58.1	78	CC(C)c1cc(Oc2c(Cl)cc(OCc3noc(=O)[nH]3)cc2Cl)nn(C)c1=O [Example 6, 3-((3,5-dichloro-4-((5-isopropyl-1-methyl-6-oxo-1,6-dihydropyridazin-3-yl)oxy)phenoxy)methyl)-1,2,4-oxadiazol-5(4H)-one]
13.1	60.9	473	CC(C)c1cc(Oc2c(Cl)cc(-c3cc(=O)[nH]o3)cc2Cl)nn(C)c1=O [Example 7, 5-(3,5-dichloro-4-((5-isopropyl-1-methyl-6-oxo-1,6-dihydropyridazin-3-yl)oxy)phenyl)isoxazol-3(2H)-one]
7	896	2300	CC(C)c1cc(Oc2c(Cl)cc(-c3cc(=O)[nH]o3)cc2Cl)n[nH]c1=O [Example 8, 5-(3,5-dichloro-4-((5-isopropyl-6-oxo-1,6-dihydropyridazin-3-yl)oxy)phenyl)isoxazol-3(2H)-one]
0.7	290	126	CC(C)c1cc(Oc2c(Cl)cc(-c3noc(=O)[nH]3)cc2Cl)n[nH]c1=O [Example 9, 3-[3,5-dichloro-4-[(5-isopropyl-6-oxo-1H-pyridazin-3-yl)oxy]phenyl]-4H-1,2,4-oxadiazol-5-one]
4.8	116	192	Cc1c(NC(=O)c2noc(=O)[nH]2)cc(Cl)c(Oc2cc(C(C)C)c(=O)n(C)n2)c1Cl [Example 11, N-(3,5-dichloro-4-((5-isopropyl-1-methyl-6-oxo-1,6-dihydropyridazin-3-yl)oxy)-2-methylphenyl)-5-oxo-4,5-dihydro-1,2,4-oxadiazole-3-carboxamide]
6.2	71.2	152	Cc1c(NCc2noc(=O)[nH]2)cc(Cl)c(Oc2cc(C(C)C)c(=O)n(C)n2)c1Cl [Example 12, 3-(((3,5-dichloro-4-((5-isopropyl-1-methyl-6-oxo-1,6-dihydropyridazin-3-yl)oxy)-2-methylphenyl)amino)methyl)-1,2,4-oxadiazol-5(4H)-one]
86.5	53.6	1630	CC(C)c1cc(Cc2c(Cl)cc(NC(=O)c3noc(=O)[nH]3)cc2Cl)n[nH]c1=O [Example 13, N-(3,5-dichloro-4-((5-isopropyl-6-oxo-1,6-dihydropyridazin-3-yl)methyl)phenyl)-5-oxo-4,5-dihydro-1,2,4-oxadiazole-3-carboxamide]
48	46.6	549	CC(C)c1cc(Cc2c(Cl)cc(NC(=O)c3noc(=O)[nH]3)cc2Cl)nn(C)c1=O [Example 14, N-(3,5-dichloro-4-((5-isopropyl-1-methyl-6-oxo-1,6-dihydropyridazin-3-yl)methyl)phenyl)-5-oxo-4,5-dihydro-1,2,4-oxadiazole-3-carboxamide]
11.7	31.5	102	CC(C)c1cc(Cc2c(Cl)cc(NCc3noc(=O)[nH]3)cc2Cl)n[nH]c1=O [Example 15, 3-(((3,5-dichloro-4-((5-isopropyl-6-oxo-1,6-dihydropyridazin-3-yl)methyl)phenyl)amino)methyl)-1,2,4-oxadiazol-5(4H)-one]
6.7	44.2	82.4	CC(C)c1cc(Cc2c(Cl)cc(NCc3noc(=O)[nH]3)cc2Cl)nn(C)c1=O [Example 16, 3-(((3,5-dichloro-4-((5-isopropyl-1-methyl-6-oxo-1,6-dihydropyridazin-3-yl)methyl)phenyl)amino)methyl)-1,2,4-oxadiazol-5(4H)-one]
>7.2	2110	> 5000	CC(C)c1cc(C(=O)c2c(Cl)cc(NC(=O)c3noc(=O)[nH]3)cc2Cl)nn(C)c1=O [Example 17, N-(3,5-dichloro-4-(5-isopropyl-1-methyl-6-oxo-1,6-dihydropyridazine-3-carbonyl)phenyl)-5-oxo-4,5-dihydro-1,2,4-oxadiazole-3-carboxamide]
6.1	271	550	CC(C)c1cc(C(=O)c2c(Cl)cc(NCc3noc(=O)[nH]3)cc2Cl)nn(C)c1=O [Example 18, 3-(((3,5-dichloro-4-(5-isopropyl-1-methyl-6-oxo-1,6-dihydropyridazine-3-carbonyl)phenyl)amino)methyl)-1,2,4-oxadiazol-5(4H)-one]
	> 5000	1930	CC(C)c1cc(S(=O)(=O)c2c(Cl)cc(NCc3noc(=O)[nH]3)cc2Cl)nn(C)c1=O [Example 19, 3-(((3,5-dichloro-4-((5-isopropyl-1-methyl-6-oxo-1,6-dihydropyridazin-3-yl)sulfonyl)phenyl)amino)methyl)-1,2,4-oxadiazol-5(4H)-one]
	> 5000	> 5000	CC(C)c1cc(S(=O)(=O)c2c(Cl)cc(NC(=O)c3noc(=O)[nH]3)cc2Cl)nn(C)c1=O [Example 20, N-(3,5-dichloro-4-((5-isopropyl-1-methyl-6-oxo-1,6-dihydropyridazin-3-yl)sulfonyl)phenyl)-5-oxo-4,5-dihydro-1,2,4-oxadiazole-3-carboxamide]
>113	180	> 5000	O=C(Nc1cc(Cl)c(Cc2cc(C3CC3)c(=O)[nH]n2)c(Cl)c1)c1noc(=O)[nH]1 [Example 21, N-(3,5-dichloro-4-((5-cyclopropyl-6-oxo-1,6-dihydropyridazin-3-yl)methyl)phenyl)-5-oxo-4,5-dihydro-1,2,4-oxadiazole-3-carboxamide]
19.5	181	898	Cn1nc(Cc2c(Cl)cc(NC(=O)c3noc(=O)[nH]3)cc2Cl)cc(C2CC2)c1=O [Example 22, N-(3,5-dichloro-4-((5-cyclopropyl-1-methyl-6-oxo-1,6-dihydropyridazin-3-yl)methyl)phenyl)-5-oxo-4,5-dihydro-1,2,4-oxadiazole-3-carboxamide]
67.3	87.3	1320	CC(C)c1cc(Oc2c(Cl)cc(NC(=O)c3noc(=O)[nH]3)cc2Cl)n[nH]c1=O [Example 23, N-(3,5-dichloro-4-((5-isopropyl-6-oxo-1,6-dihydropyridazin-3-yl)oxy)phenyl)-5-oxo-4,5-dihydro-1,2,4-oxadiazole-3-carboxamide]
